Columns and labels:
Type in all cases: biochemical
Human GSK3b = molecular target: T1, Human GSK3b (Homo sapiens, UniProt P49841); assay: GSK3b kinase scintillation proximity assay; conditions: 2.5 uM ATP, 11-point dose-response 0.0001 to 10 μM; read-out: GSK3
T1 construct: 6-His (N); made in house; host or cells: E. coli
Procedure: Human GSK3b was expressed in E. coli with a 6-His tag at the N-terminus. The protein was purified using metal-chelate affinity chromatography. The incorporation of radioactive phosphate into a biotinylated synthetic peptide, Biotin-Ahx-[…](PO3)YR-amide was detected using a scintillation proximity assay (SPA) method as described above. Assay conditions were as follows: 100 mM HEPES, pH 7.2, 10 mM MgCl2, 0.3 mg/mL heparin sulfate, 0.1 mg/mL BSA, 1 mM DTT, 2.5 uM ATP, 0.6 uCi/rxn ^33P-ATP, 1.2 ug/mL GSK-3b protein. The plates are incubated at room temperature for 19 minutes prior to the addition of SPA stop solution.
(§1) Data Calculations—Peptide substrate phosphorylation reactions were performed as described above. The example compound indicated was serially diluted 1 to 3 and added to the reactions to produce an 11-point dose-response curve ranging from 0.0001 to 10 μM.

ErbB-2 = molecular target: T2, ErbB-2 (Homo sapiens, UniProt P04626); assay: ErbB-2 protein tyrosine kinase substrate phosphorylation assay (SPA); conditions: 10 μM ATP, 11-point dose-response 0.0001 to 10 μM; read-out: ErbB2
T2 construct: made in house; host or cells: baculovirus expression system (insect cells)
T2 sequence (P04626 676-1255 limits assumed): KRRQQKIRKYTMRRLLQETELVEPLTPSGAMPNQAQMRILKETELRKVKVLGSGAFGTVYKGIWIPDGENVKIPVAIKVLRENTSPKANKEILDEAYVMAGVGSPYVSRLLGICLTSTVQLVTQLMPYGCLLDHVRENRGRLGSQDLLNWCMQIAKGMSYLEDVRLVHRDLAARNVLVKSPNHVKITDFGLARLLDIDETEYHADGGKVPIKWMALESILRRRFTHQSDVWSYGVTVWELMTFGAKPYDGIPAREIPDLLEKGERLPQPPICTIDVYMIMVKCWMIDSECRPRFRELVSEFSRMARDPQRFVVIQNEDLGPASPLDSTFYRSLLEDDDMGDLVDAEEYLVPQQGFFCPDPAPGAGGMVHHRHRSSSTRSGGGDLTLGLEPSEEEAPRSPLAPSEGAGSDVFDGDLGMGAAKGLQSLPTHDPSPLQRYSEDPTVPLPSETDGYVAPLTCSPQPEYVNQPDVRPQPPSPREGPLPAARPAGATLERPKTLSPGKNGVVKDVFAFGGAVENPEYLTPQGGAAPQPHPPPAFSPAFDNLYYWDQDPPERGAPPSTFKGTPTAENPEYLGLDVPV
Procedure: (§2) Compounds of the present invention were tested for EGFR or ErbB-2 protein tyrosine kinase inhibitory activity in substrate phosphorylation assays using enzymes purified from a baculovirus expression system.
(§3) The method measures the ability of the isolated enzyme to catalyse the transfer of the γ-phosphate from ATP onto tyrosine residues in a biotinylated synthetic peptide (biotin-Ahx-[…]-amide). Reactions were performed in 96 or 384 well polystyrene plates in a final volume of 20 or 45 μl. […] ATP per reaction, 2 μM peptide substrate, and 1 mM dithiothreitol. Reactions were initiated by adding 1 pmol (20 nM) per reaction of the indicated enzyme.
as §1

[1] = molecular target: T3, vascular endothelial growth factor receptor 2 (VEGFR2) (Homo sapiens, UniProt P35968); assay: VEGFR2 kinase assay (homogeneous time-resolved fluorescence); conditions: 75 μM ATP, 11-point dose-response 0.0001 to 10 μM; read-out: VEGF-R
T3 construct: The catalytic domains of vascular endothelial growth factor receptor 2 (VEGFR2) was expressed and purified; made in house
T3 sequence (P35968 834-1162 limits assumed): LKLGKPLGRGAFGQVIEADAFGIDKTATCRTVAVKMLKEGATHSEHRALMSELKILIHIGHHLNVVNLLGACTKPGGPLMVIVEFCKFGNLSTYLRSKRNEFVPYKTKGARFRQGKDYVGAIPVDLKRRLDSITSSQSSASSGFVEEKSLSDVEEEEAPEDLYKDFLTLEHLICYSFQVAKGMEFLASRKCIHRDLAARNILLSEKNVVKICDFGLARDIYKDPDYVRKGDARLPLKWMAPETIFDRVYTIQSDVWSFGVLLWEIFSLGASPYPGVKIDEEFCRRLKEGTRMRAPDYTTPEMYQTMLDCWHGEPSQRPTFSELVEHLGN
Procedure: The catalytic domains of vascular endothelial growth factor receptor 2 (VEGFR2) was expressed and purified using methods similar to those described for ErbB-2 and EGFR. Kinase assays were performed as described above with the following modifications: VEGFR2 assays contained 10 nM enzyme, 100 mM HEPES, pH 7.5, 0.1 mg/ml bovine serum albumin, 0.1 mM dithiothreitol, 360 nM peptide A, 75 μM ATP, and 5 mM MgCl2. The reaction was allowed to proceed for 40 min. Product was detected using a homogeneous time-resolved fluorescence procedure (Park, Y.-W., Cummings, R. T., Wu, L., Zheng, S., Cameron, P. M., Woods, A., Zaller, D. M., Marcy, A. I., and Hermes, J. D. (1999) Anal. Biochem. 269, 94-104). Briefly, the reactions were quenched by adding 100 μl of 100 mM HEPES, pH 7.5, 100 mM EDTA, 45 nM streptavidin-linked allophycocyanin (Molecular Probes, Eugene, Oreg.), and 3 nM europium-conjugated anti-phosphotyrosine antibody (Wallac, Turku, Finland). The product was detected using a Victor plate reader (Wallac, Turku, Finland) with a time delay at 665 nm.
as §1

EGFR = molecular target: T4, EGFR (Homo sapiens, UniProt P00533); assay: EGFR protein tyrosine kinase substrate phosphorylation assay (SPA); conditions: 10 μM ATP, 11-point dose-response 0.0001 to 10 μM
T4 construct: made in house; host or cells: baculovirus expression system (insect cells)
T4 sequence (P00533 669-1210 limits assumed): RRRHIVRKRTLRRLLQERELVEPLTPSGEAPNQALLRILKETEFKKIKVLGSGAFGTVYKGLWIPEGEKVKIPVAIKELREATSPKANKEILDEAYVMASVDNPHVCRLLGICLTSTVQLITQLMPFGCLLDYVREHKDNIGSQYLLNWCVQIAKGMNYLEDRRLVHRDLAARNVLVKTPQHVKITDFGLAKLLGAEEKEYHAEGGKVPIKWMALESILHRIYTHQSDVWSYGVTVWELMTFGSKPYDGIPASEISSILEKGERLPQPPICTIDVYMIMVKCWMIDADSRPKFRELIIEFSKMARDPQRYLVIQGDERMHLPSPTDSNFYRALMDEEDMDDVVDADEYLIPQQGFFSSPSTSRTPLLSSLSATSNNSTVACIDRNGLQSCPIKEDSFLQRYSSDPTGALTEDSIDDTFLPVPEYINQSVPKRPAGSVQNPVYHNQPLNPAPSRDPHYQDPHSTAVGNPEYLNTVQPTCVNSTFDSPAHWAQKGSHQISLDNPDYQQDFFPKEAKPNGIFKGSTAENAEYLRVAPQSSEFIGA
Procedure: as §2, §3, §1

T1 sequence (P49841 whole entry): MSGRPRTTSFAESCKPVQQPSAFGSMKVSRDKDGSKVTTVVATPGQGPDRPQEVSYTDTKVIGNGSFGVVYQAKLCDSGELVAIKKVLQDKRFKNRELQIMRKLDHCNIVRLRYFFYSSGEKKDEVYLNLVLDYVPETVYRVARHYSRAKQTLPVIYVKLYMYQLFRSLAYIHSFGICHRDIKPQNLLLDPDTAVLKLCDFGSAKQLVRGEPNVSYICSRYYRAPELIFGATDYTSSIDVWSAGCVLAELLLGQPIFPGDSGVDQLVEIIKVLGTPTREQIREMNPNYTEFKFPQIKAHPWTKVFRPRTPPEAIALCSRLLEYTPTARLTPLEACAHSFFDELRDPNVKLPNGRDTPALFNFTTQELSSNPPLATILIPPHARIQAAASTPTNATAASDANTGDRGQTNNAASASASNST

SMILES | IC50 (Human GSK3b) | IC50 (ErbB-2) | IC50 [1] | IC50 (EGFR)
C(=NNc1ncnc2nn3ccccc3c12)c1c[nH]c2ccccc12 [Example 14, 1H-indole-3-carbaldehyde pyrido[1′,2′:1,5]pyrazolo[3,4-d]pyrimidin-4-ylhydrazone] | 1 to 10 µM | > 10 µM | > 10 µM | 1 to 10 µM
O=C(Nc1cccc([N+](=O)[O-])c1)Nc1ncnc2nn3ccccc3c12 [Example 10, N-(3-nitrophenyl)-N′-pyrido[1′,2′:1,5]pyrazolo[3,4-d]pyrimidin-4-ylurea] | 0.1 to 1 µM | > 10 µM | > 10 µM | > 10 µM
c1ccc(Cc2nc3ccc(Nc4ncnc5nn6ccccc6c45)cc3[nH]2)cc1 [Example 7, N-[2-(phenylmethyl)-1H-benzimidazol-5-yl]pyrido[1′,2′:1,5]pyrazolo-[3,4-d]pyrimidin-4-amine] | > 10 µM | 1 to 10 µM | > 10 µM | 1 to 10 µM
O=C(Nc1cccc(C(F)(F)F)c1)Nc1ncnc2nn3ccccc3c12 [Example 9, N-pyrido[1′,2′:1,5]pyrazolo[3,4-d]pyrimidin-4-yl-N′-[3-(trifluoromethyl)phenyl]urea] | 0.1 to 1 µM | > 10 µM | 0.1 to 1 µM | > 10 µM
N#Cc1cccc(NC(=O)Nc2ncnc3nn4ccccc4c23)c1 [Example 8, N-(3-cyanophenyl)-N′-pyrido[1′,2′:1,5]pyrazolo[3,4-d]pyrimidin-4-ylurea] | 0.1 to 1 µM | > 10 µM | 0.1 to 1 µM | > 10 µM
Nc1ncnc2nn3ccccc3c12 [Example 1, pyrido[1′,2′:1,5]pyrazolo[3,4-d]pyrimidin-4-amine] | > 10 µM | > 10 µM | > 10 µM | > 10 µM
O=C(Nc1ccc(C(F)(F)F)cc1)Nc1ncnc2nn3ccccc3c12 [Example 12, N-pyrido[1′,2′:1,5]pyrazolo[3,4-d]pyrimidin-4-yl-N′-[4-(trifluoromethyl)phenyl]urea] | 1 to 10 µM | > 10 µM | 1 to 10 µM | > 10 µM

Now from value to compound:

IC50 (Human GSK3b) | IC50 (ErbB-2) | IC50 [1] | IC50 (EGFR) | SMILES
> 10 µM | 0.1 to 1 µM | > 10 µM | < 0.1 µM | Clc1cc(Nc2ncnc3nn4ccccc4c23)ccc1OCc1ccccc1 [Example 6, N-{3-chloro-4-[(phenylmethyl)oxy]phenyl}pyrido[1′,2′:1,5]pyrazolo[3,4-d]pyrimidin-4-amine]
> 10 µM | > 10 µM | 0.1 to 1 µM | > 10 µM | O=C(Nc1ccc(F)cc1)Nc1ncnc2nn3ccccc3c12 [Example 13, N-(4-fluorophenyl)-N′-pyrido[1′,2′:1,5]pyrazolo[3,4-d]pyrimidin-4-ylurea]
> 10 µM |  | > 10 µM |  | Fc1cccc(COc2ccc(Nc3ncnc4nn5ccccc5c34)cc2Cl)c1 [Example 5, N-(3-chloro-4-{[(3-fluorophenyl)methyl]oxy}phenyl)-pyrido[1′,2′:1,5]pyrazolo[3,4-d]pyrimidin-4-amine]
1 to 10 µM | > 10 µM | 1 to 10 µM | > 10 µM | O=C(Nc1ccc(Br)cc1)Nc1ncnc2nn3ccccc3c12 [Example 11, N-(4-bromophenyl)-N′-pyrido[1′,2′:1,5]pyrazolo[3,4-d]pyrimidin-4-ylurea]
> 10 µM |  | > 10 µM |  | Fc1ccc(Nc2ncnc3nn4ccccc4c23)cc1Cl [Example 4, N-(3-chloro-4-fluorophenyl)pyrido[1′,2′:1,5]pyrazolo[3,4-d]pyrimidin-4-amine]

From patent publication US20090054471A1, “PYRIDOPYRAZOLOPYRIMIDINE COMPOUNDS AND THEIR USES AS ANTI-CANCER AND ANTI-DIABETE DRUGS” (Smithkline Beecham Corporation, priority 2005, published 2009)
